According to PubChem BioAssay AID1996:
Converted amounts (≈) assume the structure as drawn.

Settings: buffer; pH 7.4; 200.0 µM

With CCOc1ccc(NC(=O)COC(=O)CN2CCCCCC2=O)cc1 as the compound, how does the solubility kinetic read?
Its solubility kinetic is greater than 52.3 µg/mL.

Which solubility kinetic does the source give for CCc1ccc2[nH]c(C(=O)N(C)c3ccc(F)cc3F)cc2c1 here?
The solubility kinetic was 1.7 µg/mL (≈ 5.41 µM).

For Cl.O=C(CCCN1CCOC(c2ccccc2)C1)c1ccc(F)cc1 (stereo not given), which solubility kinetic is on record?
The solubility kinetic was 50.3 µg/mL.

With CCc1c(C)nc(SC/C=C/c2ccccc2)[nH]c1=O as the compound, how does the solubility kinetic read?
The solubility kinetic was 1.4 µg/mL (≈ 4.89 µM).

With CC1CCCCN1CCn1c(=S)[nH]c2cc3c(cc2c1=O)OCO3 (stereo not given) as the compound, how does the solubility kinetic read?
Its solubility kinetic is greater than 52.1 µg/mL.

Which solubility kinetic does the source give for COc1ccccc1Cn1c(=O)oc2ccc(C)cc21 here?
The solubility kinetic was 2.9 µg/mL (≈ 10.8 µM).

With O=C(NCCOC(=O)c1ccccc1)c1ccc([N+](=O)[O-])cc1 as the compound, how does the solubility kinetic read?
The solubility kinetic was 14 µg/mL (≈ 44.5 µM).

With COc1ccccc1Nc1nc(NCc2ccco2)c2ccccc2n1.Cl as the compound, how does the solubility kinetic read?
Its solubility kinetic is 0.4 µg/mL.

Which solubility kinetic does the source give for CCC1CN(C(=O)NCc2ccc(F)cc2)c2cc(Cl)ccc2O1 (stereo not given) here?
The solubility kinetic was 1.3 µg/mL (≈ 3.73 µM).

For Nc1ccc(NC(=O)NC2CCCCC2)cc1[N+](=O)[O-], which solubility kinetic is on record?
Its solubility kinetic is 1.6 µg/mL (≈ 5.75 µM).

With Cc1cc([N+](=O)[O-])c2ccccc2[n+]1[O-] as the compound, how does the solubility kinetic read?
Its solubility kinetic is greater than 30.6 µg/mL.

For COc1cccc(CNCCc2c[nH]c3ccccc23)c1, which solubility kinetic is on record?
The solubility kinetic was 35.8 µg/mL (≈ 128 µM).

With CCOC(=O)c1c(C)[nH]c(C(=O)C(C)N2CCCC2)c1C (stereo not given) as the compound, how does the solubility kinetic read?
Its solubility kinetic is 37 µg/mL (≈ 127 µM).

Which solubility kinetic does the source give for COc1ccc(CNC(=S)Nc2ccc(F)c(Cl)c2)cc1OC here?
Its solubility kinetic is 3.2 µg/mL (≈ 9.02 µM).

With Cn1nccc1C(=O)OCC(=O)Nc1ccccc1 as the compound, how does the solubility kinetic read?
The solubility kinetic was greater than 38.9 µg/mL.

For O=C(Nc1ccc(F)cc1)c1ccc(CSc2ccc(Cl)cc2)o1, which solubility kinetic is on record?
The solubility kinetic was 4.3 µg/mL (≈ 11.9 µM).

With O=C1NCCCCC1NS(=O)(=O)c1cccc(C(F)(F)F)c1 (stereo not given) as the compound, how does the solubility kinetic read?
Its solubility kinetic is greater than 50.4 µg/mL.

For COc1ccc(C(=O)Nc2ccc3ccccc3c2)c(OC)c1, which solubility kinetic is on record?
The solubility kinetic was less than 0.7 µg/mL.

Which solubility kinetic does the source give for CCOc1ncccc1C(=O)NCC(c1ccco1)N1CCCCC1 (stereo not given) here?
Its solubility kinetic is greater than 51.5 µg/mL.

For O=C1CN(C(=S)NC(=O)c2ccccc2[N+](=O)[O-])CCN1, which solubility kinetic is on record?
The solubility kinetic was greater than 46.2 µg/mL.

Which solubility kinetic does the source give for COc1cc(OC)c(OC)cc1CN1CCSCC1 here?
The solubility kinetic was 32.3 µg/mL (≈ 114 µM).

Which solubility kinetic does the source give for Cc1cccc(CN2CCN(c3ncccn3)CC2)c1 here?
Its solubility kinetic is 30.6 µg/mL (≈ 114 µM).

For Cn1cccc1C(=O)OCC(=O)Nc1ccc2[nH]c(=O)[nH]c2c1, which solubility kinetic is on record?
The solubility kinetic was 11.1 µg/mL (≈ 35.3 µM).

With O=c1cc(C(F)(F)F)[nH]c2ccccc12 as the compound, how does the solubility kinetic read?
The solubility kinetic was greater than 32 µg/mL.

With C#CCOc1ccc2ccccc2c1/C=C(/C#N)c1ccc(C(=O)O)cc1 as the compound, how does the solubility kinetic read?
The solubility kinetic was 53 µg/mL (≈ 150 µM).

For CC(C)(C)CC(=O)NCCCN1CCOCC1, which solubility kinetic is on record?
The solubility kinetic was greater than 36.4 µg/mL.

For CC1CN(C(=O)c2cc3cc([N+](=O)[O-])ccc3s2)CC(C)O1 (stereo not given), which solubility kinetic is on record?
The solubility kinetic was 18.5 µg/mL (≈ 57.7 µM).

For Cc1ccc(NC2=CC(=O)C(=O)c3ccccc32)c(C)c1, which solubility kinetic is on record?
Its solubility kinetic is 3.5 µg/mL (≈ 12.6 µM).

Which solubility kinetic does the source give for CCCNC(=O)CSc1nc2ccccc2c(=O)n1CCC here?
Its solubility kinetic is 27.1 µg/mL (≈ 84.8 µM).

Which solubility kinetic does the source give for Cc1ccc(CN(C)C(=O)CCNS(=O)(=O)c2ccccc2)o1 here?
The solubility kinetic was greater than 50.5 µg/mL.

With COc1ccc(S(=O)(=O)NCc2cccnc2)cc1OC as the compound, how does the solubility kinetic read?
Its solubility kinetic is greater than 46.3 µg/mL.

For COc1ccc(NC(=O)C2CCN(C(=O)c3ccco3)CC2)c(OC)c1, which solubility kinetic is on record?
The solubility kinetic was 44.2 µg/mL (≈ 123 µM).

For O=C(NC(=S)N1CCCC1)c1ccccc1, which solubility kinetic is on record?
The solubility kinetic was greater than 35.1 µg/mL.

For CC1=C(C(=O)OCC2CCCCC2)C(c2cccc(O)c2)NC(=O)N1 (stereo not given), which solubility kinetic is on record?
The solubility kinetic was 37.3 µg/mL (≈ 108 µM).

Which solubility kinetic does the source give for C/C(=N\S(=O)(=O)c1ccc(C)cc1)N(C)C here?
Its solubility kinetic is greater than 36 µg/mL.

With CCOc1ccc(Cl)cc1S(=O)(=O)NCc1ccccn1 as the compound, how does the solubility kinetic read?
The solubility kinetic was greater than 49 µg/mL.

With Cn1c(=O)n(C)c2cc(NC(=O)CSc3ccccc3)ccc21 as the compound, how does the solubility kinetic read?
The solubility kinetic was greater than 49.1 µg/mL.

Which solubility kinetic does the source give for CC(NCCN(C)C)C(=O)C12CC3CC(CC(C3)C1)C2.Cl (stereo not given) here?
The solubility kinetic was 52.4 µg/mL.

For C(/C=C/c1ccccn1)=C\c1ccccc1, which solubility kinetic is on record?
Its solubility kinetic is 0.7 µg/mL (≈ 3.38 µM).

Which solubility kinetic does the source give for CC1(N(O)C=C2C=CC(=O)C=C2)CCCCC1=O (stereo not given) here?
The solubility kinetic was greater than 37.1 µg/mL.

With O=C(O)c1ccc2c(c1)C(=O)N(c1ccc(C(=O)OCC(=O)c3ccccc3)cc1)C2=O as the compound, how does the solubility kinetic read?
The solubility kinetic was 45.4 µg/mL (≈ 106 µM).

With CSc1sc(-c2ccnc(=S)[nH]2)c(-c2ccccc2)c1C#N as the compound, how does the solubility kinetic read?
Its solubility kinetic is 8.2 µg/mL (≈ 24 µM).

Which solubility kinetic does the source give for c1cc2c(cc1NC1CCCCCC1)OCO2 here?
Its solubility kinetic is 5.9 µg/mL (≈ 25.3 µM).

Which solubility kinetic does the source give for CCOC(=O)c1cc(-c2csc(Nc3c(C)cc(C)cc3C)n2)on1 here?
The solubility kinetic was 0.4 µg/mL (≈ 1.12 µM).

For CCCc1nc2ccccc2c(=O)n1CC(=O)c1ccc(F)cc1, which solubility kinetic is on record?
Its solubility kinetic is 2.2 µg/mL (≈ 6.78 µM).

For C[C@H](Cc1ccccc1)Nc1ncnc2c1ncn2[C@@H]1O[C@H](CO)[C@@H](O)[C@H]1O, which solubility kinetic is on record?
The solubility kinetic was greater than 57.8 µg/mL.

Which solubility kinetic does the source give for CN(C)C(=S)NC(=O)C12CC3CC(C)(CC(C)(C3)C1)C2 here?
The solubility kinetic was 27.4 µg/mL (≈ 93.1 µM).

Which solubility kinetic does the source give for CS(=O)(=O)c1ccc(C(=O)OCC(=O)Nc2cccnc2Cl)cc1[N+](=O)[O-] here?
The solubility kinetic was greater than 62.1 µg/mL.

With Cc1ccc(CCNC(=O)C2CCC(=O)N2CCc2ccccc2)cc1 (stereo not given) as the compound, how does the solubility kinetic read?
Its solubility kinetic is 47.1 µg/mL (≈ 134 µM).

With O=C(C1CC(=O)N(c2ccccc2F)C1)N1CCOCC1 (stereo not given) as the compound, how does the solubility kinetic read?
Its solubility kinetic is greater than 43.8 µg/mL.

Which solubility kinetic does the source give for O=C(Nc1ccc2ccccc2c1)C(=O)C1C(=O)Nc2ccccc21 (stereo not given) here?
Its solubility kinetic is 3.7 µg/mL (≈ 11.2 µM).

For Cc1cc(C)cc(OCC(=O)OCC(=O)Nc2cc(S(=O)(=O)N3CCOCC3)ccc2Cl)c1, which solubility kinetic is on record?
Its solubility kinetic is 41.6 µg/mL (≈ 83.7 µM).

With CC(C)CCN1CCN(Cc2nc3ccccc3s2)CC1CCO (stereo not given) as the compound, how does the solubility kinetic read?
The solubility kinetic was greater than 52.1 µg/mL.

Which solubility kinetic does the source give for O=C(Cc1ccccc1)NC(C(=O)O)C(O)c1ccc([N+](=O)[O-])cc1 (stereo not given) here?
The solubility kinetic was greater than 51.6 µg/mL.

With Cc1cc(C)cc(NC(=S)NCc2ccncc2)c1 as the compound, how does the solubility kinetic read?
Its solubility kinetic is 20.6 µg/mL (≈ 75.9 µM).

Which solubility kinetic does the source give for O=C1CC(c2ccc(Cl)cc2)CC(O)=C1C=NCCO (stereo not given) here?
Its solubility kinetic is greater than 44.1 µg/mL.

For O=C(CN1CCOCC1)Nc1ccc2c(c1)OC(F)(F)O2, which solubility kinetic is on record?
The solubility kinetic was 41.2 µg/mL (≈ 137 µM).

With COc1ccc(/C=C2\N=C(c3ccc(C)cc3)OC2=O)cc1 as the compound, how does the solubility kinetic read?
Its solubility kinetic is 3.5 µg/mL (≈ 11.9 µM).

For Cc1ccc(CN2CCC(NC(=O)c3ccccc3)CC2)cc1, which solubility kinetic is on record?
The solubility kinetic was greater than 46.3 µg/mL.

For O=c1cc(CCl)nc2scc(-c3ccccc3)n12, which solubility kinetic is on record?
Its solubility kinetic is greater than 41.5 µg/mL.

With Oc1ccc(-c2nccc(-c3ccc(F)cc3)n2)cc1 as the compound, how does the solubility kinetic read?
The solubility kinetic was 2.1 µg/mL (≈ 7.89 µM).

Which solubility kinetic does the source give for Cc1ccc(NC(=O)CCCNC(=O)c2ccc(Cl)cc2)c(O)c1 here?
Its solubility kinetic is 13.1 µg/mL (≈ 37.8 µM).

With CCN1CCN(c2ccc(NC(=O)COc3ccc(Cl)cc3C)cc2)CC1 as the compound, how does the solubility kinetic read?
The solubility kinetic was 5.1 µg/mL (≈ 13.1 µM).

With Cc1ccc(C)n1-c1ccc(N2CCOCC2)c([N+](=O)[O-])c1 as the compound, how does the solubility kinetic read?
The solubility kinetic was 29.3 µg/mL (≈ 97.2 µM).

For COc1ccccc1NC(=O)COC(=O)c1ccc2ccccc2n1, which solubility kinetic is on record?
The solubility kinetic was 13.1 µg/mL (≈ 38.9 µM).

Which solubility kinetic does the source give for CCCCc1ccc(NC(=O)NCc2ccccn2)cc1 here?
Its solubility kinetic is 13.1 µg/mL (≈ 46.2 µM).

Which solubility kinetic does the source give for O=C(Cc1csc(NC(=O)c2ccc(F)cc2)n1)NO here?
The solubility kinetic was greater than 44.3 µg/mL.

For CN(C)C(=O)COc1ccc(Oc2ccccc2)cc1, which solubility kinetic is on record?
Its solubility kinetic is 25.7 µg/mL (≈ 94.7 µM).

Which solubility kinetic does the source give for CS(=O)(=O)c1ccccc1C(=O)Nc1cccc2ncccc12 here?
The solubility kinetic was 35.9 µg/mL (≈ 110 µM).

For COc1cccc(Nc2nc(-c3ccccc3)nc3ccccc23)c1, which solubility kinetic is on record?
The solubility kinetic was 3.2 µg/mL (≈ 9.77 µM).

For CCOc1ccc(NC(=O)Nc2ccc3c(c2)nc(C)n3C)cc1, which solubility kinetic is on record?
Its solubility kinetic is 2.5 µg/mL (≈ 7.71 µM).

Which solubility kinetic does the source give for O=C1N(CN2CCOCC2)c2ccccc2C12OCC(CCl)O2 (stereo not given) here?
Its solubility kinetic is 49.6 µg/mL (≈ 146 µM).

For CCn1c(CNC(=O)C23CC4CC(CC(C4)C2)C3)nnc1SC, which solubility kinetic is on record?
The solubility kinetic was greater than 50.2 µg/mL.

For CCn1c(CNC(=O)c2cccnc2)cc2ccccc21, which solubility kinetic is on record?
Its solubility kinetic is greater than 41.9 µg/mL.

For COc1ccc(NC(=O)COc2ccc(/C=N/O)cc2OC)cc1, which solubility kinetic is on record?
The solubility kinetic was greater than 49.6 µg/mL.

Which solubility kinetic does the source give for CCC(=O)c1ccc(OCC(=O)N2CCN(CC(=O)Nc3ccccc3C(F)(F)F)CC2)cc1 here?
Its solubility kinetic is greater than 71.6 µg/mL.

Which solubility kinetic does the source give for Cc1ccc(NC(=O)Cc2ccccc2)cc1S(=O)(=O)N1CCOCC1 here?
Its solubility kinetic is greater than 56.2 µg/mL.

For Cc1ccc(C(=O)Nc2ncc(C)s2)s1, which solubility kinetic is on record?
Its solubility kinetic is 7.1 µg/mL (≈ 29.8 µM).

Which solubility kinetic does the source give for O=C(CCC1CCCCC1)NCCN1CCOCC1 here?
Its solubility kinetic is greater than 40.3 µg/mL.

For Cc1cccc(C2=NOC(=O)/C2=C\c2ccccc2F)c1, which solubility kinetic is on record?
The solubility kinetic was 6.5 µg/mL (≈ 23.1 µM).

For Cc1cccc(-n2c(C)nc3ccc(Cl)cc3c2=O)c1, which solubility kinetic is on record?
Its solubility kinetic is 22.1 µg/mL (≈ 77.6 µM).

Which solubility kinetic does the source give for Clc1ccc(Cn2cnc3ccccc32)cc1 here?
The solubility kinetic was 27 µg/mL (≈ 111 µM).

With CC(C)C1Nc2ccc(C(=O)O)cc2C2C=CCC21 (stereo not given) as the compound, how does the solubility kinetic read?
Its solubility kinetic is greater than 38.6 µg/mL.

With Cc1cc(C(F)(F)F)c2c(N)c(C(=O)NC3CC3)sc2n1 as the compound, how does the solubility kinetic read?
Its solubility kinetic is greater than 47.3 µg/mL.

For COc1ccc2[nH]c(=O)c(CNc3cc(C)ccc3C)cc2c1, which solubility kinetic is on record?
The solubility kinetic was 1.8 µg/mL (≈ 5.84 µM).
